Read-outs that look alike come from different tables or passages of the source.
Columns and labels:
hTERT expression = assay: SEAP assay, H1299/PhTERT-driven SEAP system; format: cell-based, human; conditions: for activity at 1 µM / activity at 10 µM / activity at 100 µM: Homo sapiens
Description: The condition of the cells for selecting the telomerase inhibitor must be the cancer cells with telomerase activity. H1299 is a non-small cell lung cancer cell line with telomerase activity. The hTERT communication gene linked behind PhTERT which is located at the fifth chromosome of H1299 cell can be expressed; however, this expression is hard to detect. Therefore, the plasmid having the SEAP communication gene linked behind PhTERT was transfected into H1299 cells. Under the identical condition, after PhTERT was activated, the SEAP communication gene linked behind the plasmid was also activated. This gene could be detected by this analytic method while expressing.
If additionally added reagent can inhibit PhTERT, the linked SEAP communication gene will not be expressed, and the hTERT communication gene linked behind PhTERT at the fifth chromosome will not be expressed. […]
The cellular medium after the cellular incubation was transferred into the eppondorf tube, and the activity of endogeneous alkaline phosphatase was inactivated at 65° C. for 10 minutes. After centrification, the mixture was obtained by mixing 50 μl of the supernatant with the equal volume of the SEAP buffer. The mixture and the substrate (120 mM of p-nitrophenylphosphate) were preheated at 37° C. for 10 minutes respectively, and the mixture and the substrate were mixed at a ratio of 1:10 and reacted at 37° C. The absorbance of visible light at 405 nm was determined at the appropriate time intervals, and the enzymatic activity of SEAP was represented by the speed of the increasing absorbance at 405 nm.
The selection of telomerase inhibitors of the anthraquinone compounds provided in the present invention was performed by the H1299/PhTERT-driven SEAP system. SEAP is the communication gene in this drug selection model. The SEAP inhibition was shown as follows. The quantitative cellular medium obtained after the 24-hour drug-treatment and the identical inactivation was reacted with the quantitative SEAP substrate, and the absorbance at 405 nm was detected for 5 time intervals. Subsequently, the linear slope of absorbance to the measuring time was calculated, and the variance of absorbance at 405 nm per minute was represented and compared with the SEAP-producing result of drug-untreated H1299 cells. In addition, the influence of the cell-treated drug solution to the cellular proliferation and the drug toxicity to the cells were considered, and the cellular growth was evaluated by the MTT assay. The drug-treated cells were analyzed by the SEAP assay and the data analysis of MTT assay at the same time. Both results were compared so as to delete the influence of cell number or the activity to SEAP, and the dose-dependent phenomenon could be anticipated in the range of drug concentration designed by the laboratory.
In the preliminary selection, the highest concentration was 1000 μM, and 10-fold serial dilutions were done. Therefore, the final concentrations for treating cells were 1 μM, 10 μM and 100 μM, and the drug concentrations were repeated for 5 times. Since the chemically-synthetic drugs have colors thereon, the SEAP value of drug-treatment without cells was also determined to be the background value which was deducted while treating with the drugs. The candidate drug for inhibiting telomerase on the hTERT gene expression level was evaluated and anticipated.

MTT assay in BJ1 cells = format: cell-based; conditions: human, hTERT-BJ1-PTERT(3.4)-SEAP cells, BJ1, read-out: MTT (Inhibition μM ± SD); for viability at 48 h, 1 µM: compound concentration 1 μM; for viability at 48 h, 10 µM: compound concentration 10 μM; for viability at 48 h, 100 µM: compound concentration 100 μM
Description: A total of 2×10^3 […] cells were seeded in the 96-well cell culture plate, and incubated with DMEM (GIBCO®)/glucose mixture and Medium 199 (GIBCO®)/10% FBS/1 mM sodium pyruvate (GIBCO®)/4 mM L-glutamine (GIBCO®) mixture at a ratio of 4:1 at 37° C. for 24 hours. […] After 48 hours of drug treatment, the cultured medium were collected for performing the analysis of SEAP activity. The cells were washed with 1×PBS once immediately, and the MTT assay was performed to compare the compounds with the relative toxicity or the influence to the proliferation and activity. Mitochondria is the place for cellular respiration, and there are many reductive reactions catalyzed by dehydrogenases. MTT is a water-soluble yellow compound, and the […] will be formed after reduction. This crystal can be dissolved in the organic solvent, and has high absorbance at the wavelength of 570 nm. The higher cellular activity or more cell numbers, the more generated crystal violets. Therefore, the cellular activity and cell number can be obtained by the MTT assay. MTT solution was prepared by dissolving MTT powder in PBS solution to achieve 5 mg/ml, filtrated and stored at 4° C. Lysis buffer contained 20% (w/v) of SDS in 50% of N,N-dimethylformamide (DMF, Riedel-deHaën). After the cells were incubated in the 96-well culture plate, the original medium was discarded, 100 μl of the fresh serum-free medium per well and 25 μl of MTT solution per well were added in respectively, and the cells were further incubated in the CO2 incubator at 37° C. for 4 hours. Then, 100 μl of lysis buffer per well was added in and incubated overnight in the CO2 incubator at 37° C. The absorbance at 570 nm was determined by the ELISA reader.

[1] = NCI-H1299, H1299, compound concentration 1 μM, read-out: SEAP (Inhibition μM ± SD)
[2] = NCI-H1299, H1299, compound concentration 10 μM, read-out: SEAP (Inhibition μM ± SD)
[3] = NCI-H1299, H1299, compound concentration 100 μM, read-out: SEAP (Inhibition μM ± SD)
[4] = NCI-H1299, read-out: SEAP (Inhibition μM ± SD)

| SMILES | activity at 1 µM (hTERT expression; [1]) [%] | activity at 10 µM (hTERT expression; [2]) [%] | activity at 100 µM (hTERT expression; [3]) [%] | viability at 48 h, 1 µM (MTT assay in BJ1 cells) [%] | viability at 48 h, 10 µM (MTT assay in BJ1 cells) [%] | viability at 48 h, 100 µM (MTT assay in BJ1 cells) [%] | melting point [°C] | activity at 1 µM (hTERT expression; [4]) [%] | activity at 10 µM (hTERT expression; [4]) [%] | activity at 100 µM (hTERT expression; [4]) [%] | SEAP (telomerase inhibition) (hTERT expression; low concentration (1 μM)) [%] |
| --- | --- | --- | --- | --- | --- | --- | --- | --- | --- | --- | --- |
| O=C(CCCCl)Nc1ccc2c(c1)C(=O)c1cc(NC(=O)CCCCl)ccc1C2=O [Compound 25, 2,7-Bis(4-chlorobutyramido)anthraquinone] | 88 ± 19 | 86 ± 13 | 78 ± 17 | 72 ± 3 | 62 ± 2 | 58 ± 3 | 234 | – | – | – | – |
| O=C1c2ccc(NC(=O)C3CC3)cc2C(=O)c2cc(NC(=O)C3CC3)ccc21 [Compound 32, 2,7-Bis(cyclopropanecarbonamido)anthraquinone] | 80 ± 1 | 81 ± 1 | 81 ± 1 | 60 ± 6 | 44 ± 10 | 47 ± 2 | 352 | – | – | – | – |
| CCNCCC(=O)Nc1ccc2c(c1)C(=O)c1cc(NC(=O)CCNCC)ccc1C2=O [Compound 22, 2,7-Bis[3-(ethylamino)propionamido]anthraquinone] | – | – | – | 82 ± 2 | 73 ± 3 | 42 ± 1 | 181 | 68 ± 29 | 33 ± 24 | 22 ± 13 | – |
| O=C1c2ccc([N+](=O)[O-])cc2C(=O)c2cc([N+](=O)[O-])ccc21 [Compound 1, 2,7-dinitroanthraquinone] | 87 ± 13 | 85 ± 21 | 62 ± 8 | 91 ± 2 | 91 ± 2 | 86 ± 3 | 284 | – | – | – | – |
| CCCNCC(=O)Nc1ccc2c(c1)C(=O)c1cc(NC(=O)CNCCC)ccc1C2=O [Compound 9, 2,7-Bis[2-(propylamino)acetamido]anthraquinone] | 73 ± 17 | 44 ± 16 | 24 ± 10 | 96 ± 3 | 44 | 42 ± 1 | 143 | – | – | – | – |
| Nc1ccc2c(c1)C(=O)c1cc(N)ccc1C2=O [Compound 2, 2,7-Diaminoanthraquinone] | 87 ± 10 | 75 ± 8 | 63 ± 12 | 95 ± 2 | 83 ± 1 | 80 ± 2 | 342 | – | – | – | – |
| O=C(CCN1CCNCC1)Nc1ccc2c(c1)C(=O)c1cc(NC(=O)CCN3CCNCC3)ccc1C2=O [Compound 24, 2,7-Bis[3-(piperazino)propionamido]anthraquinone] | 75 ± 26 | 71 ± 21 | 71 ± 15 | 96 ± 2 | 100 ± 3 | 88 ± 4 | 218 | – | – | – | – |
| CCN(CC)CC(=O)Nc1ccc2c(c1)C(=O)c1cc(NC(=O)CN(CC)CC)ccc1C2=O [Compound 4, 2,7-Bis[2-(diethylamino)acetamido]anthraquinone] | 90 ± 3 | 61 ± 11 | 37 ± 10 | 116 ± 4 | 67 ± 2 | 50 ± 1 | 241 | – | – | – | – |
| O=C(CN1CCNCC1)Nc1ccc2c(c1)C(=O)c1cc(NC(=O)CN3CCNCC3)ccc1C2=O [Compound 12, 2,7-Bis[2-(piperazino)acetamido]anthraquinone] | 89 ± 17 | 72 ± 20 | 60 ± 12 | 88 ± 2 | 85 ± 15 | 76 ± 2 | 173 | – | – | – | – |
| O=C1c2ccc(NC(=O)C3CCCCC3)cc2C(=O)c2cc(NC(=O)C3CCCCC3)ccc21 [Compound 34, 2,7-Bis(cyclohexanecarbonamido)anthraquinone] | 96 ± 5 | 93 ± 3 | 80 ± 2 | 87 ± 2 | 76 ± 3 | 64 ± 2 | 269 | – | – | – | – |
| CCC(=O)Nc1ccc2c(c1)C(=O)c1cc(NC(=O)CC)ccc1C2=O [Compound 27, 2,7-Bis(propionamido)anthraquinone] | 90 ± 23 | 95 ± 14 | 85 ± 16 | 77 ± 2 | 57 ± 2 | 48 ± 2 | 291 | – | – | – | – |
| CN1CCN(CCC(=O)Nc2ccc3c(c2)C(=O)c2cc(NC(=O)CCN4CCN(C)CC4)ccc2C3=O)CC1 [Compound 23, 2,7-Bis[3-(N-methylpiperazino)propionamido]anthraquinone] | 75 ± 16 | 52 ± 11 | 21 ± 10 | 95 ± 2 | 80 ± 2 | 61 ± 1 | 284 | – | – | – | – |
| O=C(CCc1ccccc1)Nc1ccc2c(c1)C(=O)c1cc(NC(=O)CCc3ccccc3)ccc1C2=O [Compound 31, 2,7-Bis(phenylpropionamido)anthraquinone] | 89 ± 23 | 79 ± 8 | 61 ± 13 | 89 ± 2 | 44 | 44 ± 1 | 268 | – | – | – | – |
| CCCNCCC(=O)Nc1ccc2c(c1)C(=O)c1cc(NC(=O)CCNCCC)ccc1C2=O [Compound 21, 2,7-Bis[3-(propylamino)propionamido]anthraquinone] | 52 ± 13 | 22 ± 14 | 13 ± 15 | 75 ± 1 | 65 ± 2 | 38 ± 2 | – | – | – | – | – |
| O=C(Cc1ccccc1)Nc1ccc2c(c1)C(=O)c1cc(NC(=O)Cc3ccccc3)ccc1C2=O [Compound 30, 2,7-Bis(phenylacetamido)anthraquinone] | 97 ± 18 | 91 ± 21 | 80 ± 17 | 93 ± 2 | 80 ± 3 | 86 ± 4 | 224 | – | – | – | 70±6 |
| O=C(CCN1CCCC1)Nc1ccc2c(c1)C(=O)c1cc(NC(=O)CCN3CCCC3)ccc1C2=O [Compound 18, 2,7-Bis[3-(pyrrolidino)propionamido]anthraquinone] | 73 ± 11 | 29 ± 15 | 17 ± 13 | 82 ± 4 | 68 | 39 | – | – | – | – | – |

Source: patent US20090253709A1 (NATIONAL DEFENSE MEDICAL CENTER, priority 2008, published 2009)
